Test: in vitro
Details: human, hela cells, % viability

Row | SMILES | viability at 28.5 h, 10 µM [%]
1 | O=C(Nc1cccc2nsnc12)c1ccc(-c2ccc(Br)cc2)o1 [CBK263752] | 95.9
2 | CC(=O)C1=C(O)C(=O)N(CCCO)C1c1cccc([N+](=O)[O-])c1 (centres unmarked) [CBK263753] | 92.6
3 | NNC(=O)CN(CCc1ccccc1)S(=O)(=O)c1ccc(Cl)cc1 [CBK263754] | 86.2
4 | CCOC(=O)C1(C)C=C(Nc2cccc(C)c2)C(=O)N1c1ccccc1 (centres unmarked) [CBK263757] | 96.8
5 | NS(=O)(=O)c1ccc(N2C(=O)C(O)=C(C(=O)c3ccc(Cl)cc3)C2c2ccc([N+](=O)[O-])cc2)cc1 (centres unmarked) [CBK263758] | 97.2
6 | O=C(Nc1cccc2ccccc12)c1ccc(CSCc2ccccc2)cc1 [CBK263759] | 105
7 | O=C(O)c1ccc(N2C(=O)C(O)=C(C(=O)c3ccccc3)C2c2cccc([N+](=O)[O-])c2)cc1 (centres unmarked) [CBK263760] | 92.5
8 | COc1ccc(C2C(C(C)=O)=C(O)C(=O)N2CCC(=O)O)cc1 (centres unmarked) [CBK263763] | 97.3
9 | CCOc1ccc(N(CC(=O)O)S(=O)(=O)c2ccc(SC)cc2)cc1 [CBK263764] | 103
10 | COc1ccc(-n2nc3cc(C)c(NC(=O)c4ccc(-c5ccc([N+](=O)[O-])cc5OC)o4)cc3n2)cc1 [CBK263766] | 99.3
11 | Cc1ccc(S(=O)(=O)N(CC(=O)O)c2ccc(Cl)cc2)cc1 [CBK263767] | 106
12 | CN(C)S(=O)(=O)N1CCC(Cc2ccccc2)CC1 [CBK263768] | 98.2
13 | Cc1ccc(C(C)C)c(OCC(=O)Nc2ccc(F)c([N+](=O)[O-])c2)c1 [CBK263771] | 91.7
14 | CC(SCc1ccccc1)C(=O)NC(C)c1ccccc1 (centres unmarked) [CBK263772] | 103
15 | Cc1cc(C)cc(N(CC(=O)O)S(C)(=O)=O)c1 [CBK263775] | 111
16 | O=C(CN(c1ccc(Cl)cc1)S(=O)(=O)c1ccccc1)Nc1ccc2ccccc2c1 [CBK263776] | 112
17 | O=C(CN(c1ccccc1)S(=O)(=O)c1ccccc1[N+](=O)[O-])Nc1ccccc1 [CBK263777] | 76.3
18 | Cc1ccc(S(=O)(=O)N(CC(=O)O)c2ccc(C)c(C)c2)cc1 [CBK263778] | 89.6
19 | O=C(COc1ccc2ccccc2c1)Nc1cc([N+](=O)[O-])ccc1F [CBK263780] | 92.8
20 | CC(NC(=O)CN(c1ccc(Cl)c(Cl)c1)S(=O)(=O)c1ccccc1)c1ccccc1 (centres unmarked) [CBK263781] | 92.8

Row | SMILES | viability at 28.5 h, 10 µM [%]
21 | O=C(O)CN(c1ccc([N+](=O)[O-])cc1)S(=O)(=O)c1ccccc1 [CBK263782] | 92.7
22 | O=C(COc1cc(Cl)c(Cl)cc1Cl)N1CCN(c2ccc([N+](=O)[O-])cc2)CC1 [CBK263783] | 97.1
23 | Cc1ccc(S(=O)(=O)NCCNc2ccc(Cl)cc2[N+](=O)[O-])cc1 [CBK263784] | 104
24 | COc1ccc(NC(=O)c2ccc(CN3CCOCC3)cc2)c(OC)c1 [CBK263790] | 91.4
25 | Cc1cc(/C=C(/C#N)c2nc3ccccc3[nH]2)c(C)n1-c1ccc(N2CCOCC2)cc1 [CBK263792] | 94
26 | Cc1ccc(N(Cc2ccc(C(=O)N(C)Cc3ccccc3)cc2)S(C)(=O)=O)cc1C [CBK263795] | 81.5
27 | CC(=O)C1=C(O)C(=O)N(CCCC(=O)O)C1c1cccc([N+](=O)[O-])c1 (centres unmarked) [CBK263801] | 103
28 | O=C(COc1ccc([N+](=O)[O-])cc1)Nc1cccc2nsnc12 [CBK263808] | 94.8
29 | COc1ccc(C2=C(Nc3ccc(C(=O)NCc4cccnc4)cc3)c3ccccc3C2=O)cc1 [CBK263809] | 89.1
30 | COc1cccc(NC(=O)CSc2ccc(Cl)cc2)c1 [CBK263811] | 85.6
31 | COc1cc(/C=N/n2cnnc2)ccc1OS(=O)(=O)c1ccccc1[N+](=O)[O-] [CBK263814] | 89.3
32 | Cc1cc(/C=N/NC(=O)C(=O)NCc2ccccn2)c(C)n1-c1cccc(Br)c1 [CBK263815] | 93.2
33 | CC(NS(=O)(=O)N(C)C)c1ccccc1 (centres unmarked) [CBK263819] | 96.6
34 | O=C(CCN1CCOCC1)Nc1ccc(Cl)cc1 [CBK263820] | 98.8
35 | CCN(CC)Cc1c(O)ccc2cc(-c3nc4ccccc4[nH]3)c(=O)oc12 [CBK263824] | 102
36 | Cc1cccn2c(=O)c(/C=C3\SC(=S)N(CC4CCCO4)C3=O)c(NCCCn3ccnc3)nc12 (centres unmarked) [CBK263825] | 119
37 | CCOC(=O)c1c(-c2ccccc2)oc2ccc(OCC(=O)NN)cc12 [CBK263826] | 91.8
38 | CC(=O)Oc1ccc(-c2cccc(C(=O)NCC(=O)O)c2)cc1 [CBK263828] | 86.9
39 | CC(=O)Oc1ccc(-c2cccc(C(=O)NCCO)c2)cc1 [CBK263829] | 105
40 | Cc1cccn2c(=O)c(/C=C3\SC(=S)N(Cc4ccccc4)C3=O)c(NCCCn3ccnc3)nc12 [CBK263833] | 102

Row | SMILES | viability at 28.5 h, 10 µM [%]
41 | COC(=O)c1c(NC(=O)CC2SCC(C(=O)OC)NC2=O)sc2c1CCCC2 (centres unmarked) [CBK263834] | 94.5
42 | O=C(c1ccc(S(=O)(=O)N2CCCCCC2)cc1)N1CCC(CN2C(=O)c3cccc4cccc(c34)C2=O)CC1 [CBK263835] | 98.1
43 | Cc1cccn2c(=O)c(/C=C3\SC(=S)N(C(C)c4ccccc4)C3=O)c(NCCCn3ccnc3)nc12 (centres unmarked) [CBK263836] | 92.9
44 | Cc1nnc2nc(-c3cccc(Cl)c3Cl)[nH]n12 [CBK263845] | 94.2
45 | N/C(=N/OC(=O)c1ccc2nsnc2c1)c1ncon1 [CBK263847] | 105
46 | CN(C1=NS(=O)(=O)c2ccccc21)c1ccc(OC(=O)C2CC(=O)N(c3ccccc3)C2)cc1 (centres unmarked) [CBK263849] | 87
47 | Cc1ccc(CSc2nnc(-c3ccc(NC(=O)/C=C/c4ccccc4)cc3)n2C)cc1 [CBK263850] | 90.4
48 | Cc1ccc(C(=O)C(NC(=O)c2ccco2)Nc2cccc3ccccc23)cc1 (centres unmarked) [CBK263856] | 86.3
49 | N=C1NS(=O)(=O)NC1c1ccc(Cl)cc1 (centres unmarked) [CBK263858] | 88.4
50 | CN1C(=O)C(CC(=O)Nc2ccc(F)cc2)N(CCc2ccccc2)C1=S (centres unmarked) [CBK263861] | 118
51 | O=C(O)c1cccc(-c2ccc(/C=N/NC(=O)c3sc4ccccc4c3Cl)o2)c1 [CBK263863] | 91
52 | C(=N\n1cnnc1)/c1ccccc1OCc1cccc2ccccc12 [CBK263864] | 94.6
53 | CCOC(=O)C1=C(C)NC(=O)NC1c1ccc(-c2ccccc2F)o1 (centres unmarked) [CBK263867] | 95.7
54 | O=C(CC1C(=O)N(Cc2ccccc2)C(=S)N1Cc1ccccc1)Nc1ccccc1 (centres unmarked) [CBK263871] | 97.3
55 | O=C(O)c1cc(NS(=O)(=O)c2ccc(N3CCCCC3)c([N+](=O)[O-])c2)cc(C(=O)O)c1 [CBK263876] | 101
56 | N/C(=N\C(=O)CN1C(=O)C2CCCCC2C1=O)Nc1nc2ccccc2s1 (centres unmarked) [CBK263877] | 92.4
57 | COc1ccccc1NCC(=O)n1nc(C)cc1C [CBK263879] | 97.8
58 | O=C(O)COC(=O)C1C(c2ccccc2)C(C(=O)O)C1c1ccccc1 (centres unmarked) [CBK263881] | 85.9

Same assay, conditions: human, hela cells, % viability, bulk resorufin, single well

Row | SMILES | viability at 28.5 h, 10 µM [%]
59 | O=C1NC(=O)N(c2ccc(F)cc2)C(=O)/C1=C/c1ccccc1OCc1ccc([N+](=O)[O-])cc1 [CBK263846] | 93.5

From publication PMC12040169 (PLOS Biology, 2025)
